Source: patent US20200237759A1, “DOSAGE REGIME AND METHOD FOR TREATING PULMONARY ARTERIAL HYPERTENSION” (Altavant Sciences GmbH, priority 2019, published 2020)

Experiment: Thermodynamic stability of crystalline forms
Format: physicochemical
Settings: compared to Form 1

CCOC(=O)[C@@H]1CC2(CCN(c3cc(O[C@H](c4ccc(Cl)cc4-c4ccccc4)C(F)(F)F)nc(N)n3)CC2)CN1 [Form 3, (S)-ethyl 8-(2-amino-6-((R)-1-(5-chloro-[1,1′-biphenyl]-2-yl)-2,2,2-trifluoroethoxy)pyrimidin-4-yl)-2,8-diazaspiro[4.5]decane-3-carboxylate]
thermodynamic stability: substantially greater thermodynamic stability compared to Form 1
